According to patent US20250332173A1, “COMPOUNDS AND METHODS FOR MODULATING NUCLEIC ACID SPLICING” (REMIX THERAPEUTICS INC., priority 2021, published 2025):
Where two headings read alike, the source gives them in different places.

What was measured:
[1] = tested on: HTT mRNA; assay: RT-qPCR splicing assay, HTT canonical junction (CJ) and alternative junction (AJ) mRNA; type: cell-based, human; conditions: Homo sapiens; for AC50: increase in HTT alternative junction (AJ) mRNA, read-out: HTT AJ AC50
In short: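 Read-out is one-step RT-qPCR on cell lysates detecting the exon-exon junction of each isoform, normalized to a housekeeping gene (PPIA in A673, GAPDH or GUSB in K562).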

[2] = tested on: K562 (human chronic myelogenous leukemia) cells; assay: Cell Titer Glo 2.0 cell viability assay; type: cell-based; conditions: Homo sapiens, K562, 72 h, K562 cells, 72 hours, Cell Titer Glo 2.0; read-out: K562 GI50
[3] = tested on: Target C; assay: HiBiT protein abundance assay, Target C (Promega Nano-Glo HiBiT Lytic Detection System, knock-in K562 cell line); type: cell-based, human; conditions: Homo sapiens, K562, 24 h, HiBiT K562 cell line, 24 hours, top dose 10 μM; read-out: Effect on protein abundance, Target C (IC50 category)
In short: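 Protein abundance was read by Nano-Glo HiBiT lytic luminescence after 24 h compound exposure (10-point, threefold series from 10 μM final) of HiBiT knock-in K562 cells. Parental K562 served as baseline; the 50%-abundance concentration was interpolated from a four-parameter logistic fit.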

[4] = tested on: SMN2 mRNA; assay: RT-qPCR splicing assay, SMN2 canonical junction (CJ) mRNA; type: cell-based, human; conditions: Homo sapiens
In short: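 Read-out is canonical exon-exon junction mRNA quantified by RT-qPCR against a GAPDH, GUSB or PPIA control. Cells (A673 or K562) received compound for 24 h, top final dose 10 uM in an 11-point 3-fold series.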

[5] = decrease in HTT canonical junction (CJ) mRNA, RT-qPCR, read-out: HTT CJ IC50
[6] = canonical junction qPCR panel, Table 5, read-out: HTT (decrease in CJ mRNA levels, IC50)
[7] = canonical junction qPCR panel, Table 5, read-out: SMN2 (decrease in CJ mRNA levels, IC50)
[8] = Table 5 panel, canonical junction qPCR, compound concentration having 50% response in CJ decrease, read-out: HTT IC50 (decrease in CJ mRNA levels)
[9] = Table 5 panel, canonical junction qPCR, compound concentration having 50% response in CJ decrease, read-out: SMN2 IC50 (decrease in CJ mRNA levels)

IC50 [1, 5]	IC50 [1, 6]	GI50 [2]	IC50 [3]	IC50 [4, 7]	IC50 [1, 8]	IC50 [4, 9]	SMILES	AC50 ([1]; RT-qPCR)
> 10 µM	> 10 µM	0.1 to 1 µM	> 10 µM	< 0.1 µM	–	–	Cc1c(O)c(-c2ncc3c(=O)n(C4CCNC4)ccc3n2)cc2cn(C)nc12 (stereo in doubt) [Compound 1440, (6S)-2-(6-hydroxy-2,7-dimethyl-indazol-5-yl)-6-pyrrolidin-3-yl-pyrido[4,3-d]pyrimidin-5-one]	> 10 µM
1 to 10 µM	–	1 to 10 µM	1 to 10 µM	–	1 to 10 µM	< 0.1 µM	CCN1CCC(n2ccc3cc(-c4cc(C)c5nn(C)cc5c4)ncc3c2=O)CC1 [Compound 1207, 6-(2,7-dimethyl-2H-indazol-5-yl)-2-(1-ethylpiperidin-4-yl)-2,7-naphthyridin-1(2H)-one]	1 to 10 µM
1 to 10 µM	1 to 10 µM	1 to 10 µM	1 to 10 µM	0.1 to 1 µM	–	–	Cc1c(O)c(-c2ncc3c(=O)n([C@H]4C[C@@H](N)C4)ccc3n2)cc2cn(C)nc12 [Compound 1431, 6-((1s,3s)-3-aminocyclobutyl)-2-(6-hydroxy-2,7-dimethyl-2H-indazol-5-yl)pyrido[4,3-d]pyrimidin-5(6H)-one]	1 to 10 µM
0.1 to 1 µM	0.1 to 1 µM	< 0.1 µM	0.1 to 1 µM	< 0.1 µM	–	–	Cc1c(O)c(-c2ncc3c(=O)n([C@H]4CCN[C@@H](C)C4)ccc3n2)cc2cn(C)nc12 [Compound 1441, 2-(6-hydroxy-2,7-dimethyl-indazol-5-yl)-6-(2-methyl-4-piperidyl)pyrido[4,3-d]pyrimidin-5-one]	0.1 to 1 µM
> 10 µM	> 10 µM	> 10 µM	> 10 µM	1 to 10 µM	–	–	Cc1cn2cc(-c3ccc4c(=O)n(C5CCNC5)ccc4n3)c(O)c(C)c2n1 (stereo not drawn) [Compound 1302]	> 10 µM
> 10 µM	> 10 µM	> 10 µM	> 10 µM	> 10 µM	–	–	COc1c(-c2ccc3c(=O)n(C4CCNCC4)ccc3n2)cc2cn(C)nc2c1C [Compound 1243]	> 10 µM
1 to 10 µM	1 to 10 µM	1 to 10 µM	1 to 10 µM	< 0.1 µM	–	–	Cc1cn2nc(-c3ccc4c(=O)n([C@H]5CCNC5)ccc4n3)cc(C)c2n1 [Compound 1437, 2-(2,8-dimethylimidazo[1,2-b]pyridazin-6-yl)-6-[(3S)-pyrrolidin-3-yl]-1,6-aphthyridin-5-one]	1 to 10 µM
1 to 10 µM	1 to 10 µM	0.1 to 1 µM	1 to 10 µM	< 0.1 µM	–	–	Cc1c(O)c(-c2ncc3c(=O)n([C@@H]4CC5CC4CN5)ccc3n2)cc2cn(C)nc12 (stereo in doubt) [Compound 1443, 6-[(1R,4R,5R)-2-azabicyclo[2.2.1]heptan-5-yl]-2-(6-hydroxy-2,7-dimethyl-indazol-5-yl)pyrido[4,3-d]pyrimidin-5-one]	1 to 10 µM
0.1 to 1 µM	0.1 to 1 µM	0.1 to 1 µM	0.1 to 1 µM	< 0.1 µM	–	–	Cc1cn2cc(-c3ncc4c(=O)n(C5CCNCC5)ccc4n3)cc(C#N)c2n1 [Compound 1301]	0.1 to 1 µM
> 10 µM	–	> 10 µM	> 10 µM	–	> 10 µM	> 10 µM	Cn1cc2ccc(-n3cnc4cc(NC5CCNCC5)ccc4c3=O)cc2n1 [Compound 204]	> 10 µM
< 0.1 µM	< 0.1 µM	< 0.1 µM	< 0.1 µM	< 0.1 µM	–	–	Cc1cn(C2CCNCC2)c(=O)c2ccc(-c3cc4cn(C)nc4c(F)c3O)nc12 [Compound 1285]	< 0.1 µM
1 to 10 µM	1 to 10 µM	< 0.1 µM	0.1 to 1 µM	< 0.1 µM	–	–	Cc1c(O)c(-c2ncc3c(=O)n([C@H]4CCNC(C)(C)C4)ccc3n2)cc2cn(C)nc12 [Compound 1436]	1 to 10 µM

More lines, now with the values behind:

SMILES	IC50 [1, 5]	IC50 [1, 6]	GI50 [2]	IC50 [3]	IC50 [4, 7]	IC50 [1, 8]	IC50 [4, 9]	AC50 ([1]; RT-qPCR)
Cn1cc2cc(-c3ncc4c(=O)n(C5CCNC5)ccc4n3)c(O)c(F)c2n1 (stereo not drawn) [Compound 1223]	1 to 10 µM	–	1 to 10 µM	1 to 10 µM	–	1 to 10 µM	< 0.1 µM	1 to 10 µM
Cc1c(O)c(-c2ncc3c(=O)n(C4CNC4)ccc3n2)cc2cn(C)nc12 [Compound 1305, 6-(azetidin-3-yl)-2-(6-hydroxy-2,7-dimethyl-indazol-5-yl)pyrido[4,3-d]pyrimidin-5-one]	> 10 µM	> 10 µM	1 to 10 µM	> 10 µM	< 0.1 µM	–	–	> 10 µM
Cc1cn2cc(-c3ncc4c(=O)n(C5CCNCC5)ccc4n3)c(O)c(C)c2n1 [Compound 1225]	0.1 to 1 µM	–	0.1 to 1 µM	0.1 to 1 µM	–	0.1 to 1 µM	< 0.1 µM	0.1 to 1 µM
Cc1cn2cc(-c3cc(F)c4c(=O)n([C@@H]5CNC[C@H]5F)ccc4c3)cc(F)c2n1 [Compound 1456]	> 10 µM	> 10 µM	1 to 10 µM	> 10 µM	0.1 to 1 µM	–	–	> 10 µM
Cc1cc(-c2cc3ccn(C4CCN(CCO)CC4)c(=O)c3cn2)cc2cn(C)nc12 [Compound 1210, 6-(2.7-dimethyl-2H-indazol-5-yl)-2-(1-(2-hydroxyethyl)piperidin-4-yl)-2,7-naphthyridin-1(2H)-one]	> 10 µM	–	1 to 10 µM	> 10 µM	–	> 10 µM	0.1 to 1 µM	> 10 µM
Cc1cn2nc(-c3ccc4c(=O)n(C5CCNCC5)ncc4c3)cc(C)c2n1 [Compound 186]	< 0.1 µM	–	0.1 to 1 µM	0.1 to 1 µM	–	< 0.1 µM	< 0.1 µM	< 0.1 µM
Cc1c(O)c(-c2ncc3c(=O)n(C4CCNC(C)(C)C4)ccc3n2)cc2cn(C)nc12 (stereo not drawn) [Compound 1442]	1 to 10 µM	0.1 to 1 µM	0.1 to 1 µM	0.1 to 1 µM	< 0.1 µM	–	–	0.1 to 1 µM
Cn1cc2nc(-c3ccc4c(=O)n(C5CCNCC5)ccc4n3)c(O)cc2n1 [Compound 1296]	0.1 to 1 µM	< 0.1 µM	0.1 to 1 µM	0.1 to 1 µM	< 0.1 µM	–	–	< 0.1 µM
Cc1c(O)c(-c2ncc3c(=O)n([C@@H]4C[C@@H](C)N[C@@H](C)C4)ccc3n2)cc2cn(C)nc12 [Compound 1453, 6-[(2S,6R)-2,6-dimethyl-4-piperidyl]-2-(6-hydroxy-2,7-dimethyl-indazol-5-yl)pyrido[4,3-d]pyrimidin-5-one]	> 10 µM	1 to 10 µM	0.1 to 1 µM	> 10 µM	< 0.1 µM	–	–	1 to 10 µM
Cc1c(O)c(-c2ncc3c(=O)n(C4CCNCC4)cc(C)c3n2)cc2cn(C)nc12 [Compound 1191]	0.1 to 1 µM	–	< 0.1 µM	< 0.1 µM	–	< 0.1 µM	< 0.1 µM	< 0.1 µM
Cc1c(O)c(-c2ncc3c(=O)n(C4CCNC4)ccc3n2)cc2cn(C)nc12 (stereo in doubt) [Compound 1439, (6R)-2-(6-hydroxy-2,7-dimethyl-indazol-5-yl)-6-pyrrolidin-3-yl-pyrido[4,3-d]pyrimidin-5-one]	> 10 µM	1 to 10 µM	0.1 to 1 µM	> 10 µM	< 0.1 µM	–	–	1 to 10 µM
Cc1c(O)c(-c2ncc3c(=O)n(N4CCNCC4)ccc3n2)cc2cn(C)nc12 [Compound 1303]	0.1 to 1 µM	0.1 to 1 µM	0.1 to 1 µM	0.1 to 1 µM	< 0.1 µM	–	–	0.1 to 1 µM
COc1c(-c2cc3ccn(C4CCNCC4)c(=O)c3cn2)cc2cn(C)nc2c1F [Compound 1219]	1 to 10 µM	–	1 to 10 µM	1 to 10 µM	–	1 to 10 µM	0.1 to 1 µM	1 to 10 µM
Cc1c(O)c(-c2ccc3c(=O)n(C4CC(C)NC(C)C4)ccc3n2)cc2cn(C)nc12 (stereo not drawn) [Compound 1447, 6-(2,6-dimethyl-4-piperidyl)-2-(6-hydroxy-2,7-dimethyl-indazol-5-yl)-1,6-naphthyridin-5-one]	0.1 to 1 µM	0.1 to 1 µM	0.1 to 1 µM	0.1 to 1 µM	< 0.1 µM	–	–	0.1 to 1 µM
Cc1cn2cc(-c3cc4ccn(C5CCNCC5)c(=O)c4cn3)cc(F)c2n1 [Compound 1196]	0.1 to 1 µM	–	0.1 to 1 µM	0.1 to 1 µM	–	0.1 to 1 µM	< 0.1 µM	0.1 to 1 µM
